Active and inactive are the calls of the source. No cut-off for these calls is given here.
Legend:
[1] = biological target: T1, Induced myeloid leukemia cell differentiation protein Mcl-1 (Homo sapiens, UniProt Q07820); assay: Displacement of FAM-Bid peptide from N-terminal 8x His-tagged MCl-1 (unknown origin) expressed in Escherichia coli BL21 (DE3) after 30 mins by fluorescence polarization assay
[2] = biological target: T2, Apoptosis regulator Bcl-2 (Homo sapiens, UniProt P10415); assay: Displacement of FAM-Bid peptide from N-terminal 8x His-tagged Bcl-2 (unknown origin) expressed in Escherichia coli BL21 (DE3) after 30 mins by fluorescence polarization assay
[3] = biological target: T3, E3 ubiquitin-protein ligase Mdm2 (Homo sapiens, UniProt Q00987); assay: Displacement of FAM-p53TAD peptide from N-terminal 8x His-tagged human MDM2 (25 to 108 residues) expressed in Escherichia coli BL21 (DE3) after 30 mins by fluorescence polarization assay
Target sequence in this assay (Q00987 whole entry, the tested form may be a part): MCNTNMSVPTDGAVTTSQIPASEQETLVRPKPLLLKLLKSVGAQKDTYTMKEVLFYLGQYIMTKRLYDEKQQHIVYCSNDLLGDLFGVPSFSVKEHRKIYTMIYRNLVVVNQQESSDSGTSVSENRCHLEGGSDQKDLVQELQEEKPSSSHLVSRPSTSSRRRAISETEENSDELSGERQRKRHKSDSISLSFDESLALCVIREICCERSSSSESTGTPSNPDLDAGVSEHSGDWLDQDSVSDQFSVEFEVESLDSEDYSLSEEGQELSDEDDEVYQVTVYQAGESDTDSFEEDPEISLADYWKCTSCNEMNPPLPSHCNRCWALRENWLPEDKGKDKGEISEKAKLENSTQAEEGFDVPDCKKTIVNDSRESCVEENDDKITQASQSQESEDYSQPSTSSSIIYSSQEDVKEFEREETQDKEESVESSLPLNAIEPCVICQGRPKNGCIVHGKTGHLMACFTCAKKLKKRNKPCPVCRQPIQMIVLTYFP

[4] = Cell cycle arrest in human HCT116 p53+/+ cells assessed as accumulation at <G1 phase at 5 uM after 24 hrs by propidium iodide staining-based flow cytometric method (reference value: 0.3%); type: functional; settings: HCT-116
[5] = biological target: T3, E3 ubiquitin-protein ligase Mdm2; assay: Inhibition of MDM2-p53 interaction in human HCT116 p53+/+ cells assessed as upregulation of p53 expression at 5 to 10 uM after 12 hrs by immunoblotting method; type: cell-based; settings: HCT-116
Target sequence in this assay (Q00987 whole entry, looked up, the tested form may be a part): as the sequence (Q00987 whole entry, the tested form may be a part) above

[6] = biological target: T3, E3 ubiquitin-protein ligase Mdm2; assay: Inhibition of MDM2-p53 interaction in human HCT116 p53+/+ cells assessed as upregulation of MDM2 expression at 5 to 10 uM after 12 hrs by immunoblotting method; type: cell-based; settings: HCT-116
Target sequence in this assay (Q00987 whole entry, looked up, the tested form may be a part): as the sequence (Q00987 whole entry, the tested form may be a part) above

[7] = biological target: T3, E3 ubiquitin-protein ligase Mdm2; assay: Inhibition of MDM2-p53 interaction in human HCT116 p53+/+ cells assessed as upregulation of p21 expression at 5 to 10 uM after 12 hrs by immunoblotting method; type: cell-based; settings: HCT-116
Target sequence in this assay (Q00987 whole entry, looked up, the tested form may be a part): as the sequence (Q00987 whole entry, the tested form may be a part) above

[8] = Cell cycle arrest in human HCT116 p53-/- cells assessed as accumulation at G1 phase at 10 uM after 24 hrs by propidium iodide staining-based flow cytometric method (reference value: 28%); type: functional; settings: HCT-116
[9] = Cell cycle arrest in human HCT116 p53-/- cells assessed as accumulation at <G1 phase at 10 uM after 24 hrs by propidium iodide staining-based flow cytometric method (reference value: 0.6%); type: functional; settings: HCT-116
[10] = Cell cycle arrest in human HCT116 p53+/+ cells assessed as accumulation at G2/M phase at 5 uM after 24 hrs by propidium iodide staining-based flow cytometric method (reference value: 26%); type: functional; settings: HCT-116
[11] = Cell cycle arrest in human HCT116 p53+/+ cells assessed as accumulation at S phase at 5 uM after 24 hrs by propidium iodide staining-based flow cytometric method (reference value: 42%); type: functional; settings: HCT-116
[12] = Cell cycle arrest in human HCT116 p53+/+ cells assessed as accumulation at G1 phase at 5 uM after 24 hrs by propidium iodide staining-based flow cytometric method (reference value: 31%); type: functional; settings: HCT-116
[13] = Cell cycle arrest in human HCT116 p53-/- cells assessed as accumulation at S phase at 10 uM after 24 hrs by propidium iodide staining-based flow cytometric method (reference value: 36%); type: functional; settings: HCT-116
[14] = Cell cycle arrest in human HCT116 p53-/- cells assessed as accumulation at G2/M phase at 10 uM after 24 hrs by propidium iodide staining-based flow cytometric method (reference value: […]%); type: functional; settings: HCT-116
HCT-116 [15] = assay: Induction of apoptosis in human HCT116 p53+/+ cells after 48 hrs by Annexin V-FITC staining-based flow cytometric method; type: functional, cell-based
[16] = biological target: T2, Apoptosis regulator Bcl-2; assay: Inhibition of BCl-2/Bim interaction in human DMS53 cells harboring p53 mutant at 5 to 10 uM after 12 hrs by immunoprecipitation method; type: cell-based; settings: DMS-53
[17] = biological target: T2, Apoptosis regulator Bcl-2; assay: Inhibition of BCl-2/Bax interaction in human DMS53 cells harboring p53 mutant at 5 to 10 uM after 12 hrs by immunoprecipitation method; type: cell-based; settings: DMS-53
DMS-53 [18] = assay: Induction of apoptosis in human DMS53 cells harboring p53 mutant assessed as caspase-3 cleavage at 5 to 10 uM after 12 hrs by immunoblotting method; type: functional, cell-based
DMS-53 [19] = assay: Induction of apoptosis in human DMS53 cells harboring p53 mutant assessed as cytochrome c release at 5 to 10 uM after 12 hrs by immunoblotting method; type: functional, cell-based
DMS-53 [20] = assay: Induction of apoptosis in human DMS53 cells harboring p53 mutant assessed as PARP cleavage at 5 to 10 uM after 12 hrs by immunoblotting method; type: functional, cell-based
[21] = biological target: T3, E3 ubiquitin-protein ligase Mdm2; assay: Binding affinity to N-terminal 8x His-tagged human MDM2 (25 to 108 residues) expressed in Escherichia coli BL21 (DE3) by isothermal titration microcalorimetric method
Target sequence in this assay (Q00987 whole entry, the tested form may be a part): as above

[22] = biological target: T2, Apoptosis regulator Bcl-2; assay: Binding affinity to N-terminal 8x His-tagged Bcl-2 (unknown origin) expressed in Escherichia coli BL21 (DE3) by isothermal titration microcalorimetric method
[23] = biological target: T1, Induced myeloid leukemia cell differentiation protein Mcl-1; assay: Binding affinity to N-terminal 8x His-tagged MCl-1 (unknown origin) expressed in Escherichia coli BL21 (DE3) by isothermal titration microcalorimetric method
HCT-116 [24] = assay: Effect on MDM2 expression in human HCT116 p53-/- cells at 10 to 20 uM after 12 hrs by immunoblotting method; type: functional, cell-based
HCT-116 [25] = assay: Effect on p53 expression in human HCT116 p53-/- cells at 10 to 20 uM after 12 hrs by immunoblotting method; type: functional, cell-based
HCT-116 [26] = assay: Effect on p21 expression in human HCT116 p53-/- cells at 10 to 20 uM after 12 hrs by immunoblotting method; type: functional, cell-based
[27] = Upregulation of p53 mRNA expression in human HCT116 p53+/+ cells at 10 uM after 12 hrs by qPCR method; type: functional, cell-based; settings: HCT-116
[28] = biological target: T1, Induced myeloid leukemia cell differentiation protein Mcl-1; assay: Inhibition of Mcl-1/Bim interaction in human DMS53 cells harboring p53 mutant at 5 to 10 uM after 12 hrs by immunoprecipitation method; type: cell-based; settings: DMS-53
[29] = biological target: T1, Induced myeloid leukemia cell differentiation protein Mcl-1; assay: Inhibition of Mcl-1/Bax interaction in human DMS53 cells harboring p53 mutant at 5 to 10 uM after 12 hrs by immunoprecipitation method; type: cell-based; settings: DMS-53
[30] = biological target: T2, Apoptosis regulator Bcl-2; assay: Binding affinity to 15N-labeled Bcl-2 (unknown origin) by 2D 1H-15N HSQC NMR spectroscopic method

T1 sequence (Q07820 whole entry): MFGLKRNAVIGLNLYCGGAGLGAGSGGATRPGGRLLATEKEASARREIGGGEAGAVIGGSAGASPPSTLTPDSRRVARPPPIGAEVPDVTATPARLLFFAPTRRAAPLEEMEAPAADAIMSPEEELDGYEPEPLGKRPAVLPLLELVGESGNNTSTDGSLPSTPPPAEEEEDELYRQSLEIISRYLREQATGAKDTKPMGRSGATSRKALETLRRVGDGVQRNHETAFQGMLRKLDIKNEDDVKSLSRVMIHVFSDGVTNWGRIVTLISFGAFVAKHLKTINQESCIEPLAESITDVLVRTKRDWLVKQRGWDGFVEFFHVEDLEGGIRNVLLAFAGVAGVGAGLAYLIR
T2 sequence (P10415 whole entry, the tested form may be a part): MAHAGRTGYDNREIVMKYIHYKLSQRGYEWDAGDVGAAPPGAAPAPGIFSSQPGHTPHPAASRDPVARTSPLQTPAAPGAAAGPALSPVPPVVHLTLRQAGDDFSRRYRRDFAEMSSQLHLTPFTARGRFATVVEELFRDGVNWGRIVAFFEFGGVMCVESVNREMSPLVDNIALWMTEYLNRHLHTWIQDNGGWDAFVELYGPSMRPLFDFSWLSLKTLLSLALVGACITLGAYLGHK

| SMILES | Ki [1] | Ki [2] | Ki [3] | other results |
| --- | --- | --- | --- | --- |
| CC(C)Oc1ccc(-c2cc(C(=O)O)nn2-c2ccccc2)cc1 | 3.62 µM | 7 µM | 2.29 µM |  |
| CN(C)CC[C@H](CSc1ccccc1)Nc1ccc(S(=O)(=O)NC(=O)c2ccc(N3CCN(Cc4ccccc4-c4ccc(Cl)cc4)CC3)cc2)cc1[N+](=O)[O-] |  |  |  | Activity [4]: 7.1%; inhibition [5]: inactive; inhibition [6]: inactive; inhibition [7]: inactive; Activity [8]: 26%; Activity [9]: 6.4%; Activity [10]: 24%; Activity [11]: 40%; Activity [12]: 28%; Activity [13]: 32%; Activity [14]: 34%; Activity (HCT-116 [15]): Active; inhibition [16]: Active; inhibition [17]: Active; Activity (DMS-53 [18]): Active; Activity (DMS-53 [19]): Active; Activity (DMS-53 [20]): Active |
| CC(C)c1ccc(-n2nc(C(=O)O)cc2-c2ccc(OCc3ccccc3)cc2)cc1 | 0.226 µM | 0.385 µM | 0.616 µM |  |
| O=C(O)c1cc(-c2ccc(OCc3ccccc3)cc2)n(-c2ccccc2)n1 | > 10 µM | > 10 µM | 19.8 µM |  |
| CC(C)Oc1ccc(-c2cc(C(=O)O)nn2-c2ccc(Oc3ccccc3)cc2)cc1 | 0.371 µM | 0.932 µM | 0.712 µM |  |
| CC(C)c1ccc2/c(=N\c3ccc(Oc4ccccc4)cc3)c3cc(O)c(O)c(O)c3n(C(=O)c3ccc(C(C)(C)C)cc3)c2c1 | 0.079 µM | 0.056 µM | > 25 µM |  |
| CCOc1ccc(-c2c(NC(=O)c3ccccc3)c(C(=O)O)nn2-c2ccc(Oc3ccccc3)cc2)cc1 | 0.635 µM | 0.855 µM | 1.13 µM |  |
| CCOc1ccc(-c2cc(C(=O)O)nn2-c2ccccc2)cc1 | 3.8 µM | 6.09 µM | 3.26 µM |  |
| CC(C)Oc1ccc(C(=O)Nc2c(C(=O)O)nn(-c3ccc(C(C)C)cc3)c2-c2ccc(OCc3ccccc3)cc2)cc1 | 2.6 µM | > 10 µM | 2.19 µM |  |
| CC(C)Oc1ccc(-c2cc(C(=O)O)nn2-c2ccc(C(C)C)cc2)cc1 | 2.39 µM | 5.25 µM | 2.14 µM |  |
| CCOc1ccc(-c2c(NC(=O)c3ccc(OCC(C)C)cc3)c(C(=O)O)nn2-c2ccc(Oc3ccccc3)cc2)cc1 | 0.393 µM | 1.04 µM | 0.446 µM |  |
| CCOc1ccc(-c2c(NC(=O)c3ccc(OC(C)C)cc3)c(C(=O)O)nn2-c2ccc(Oc3ccccc3)cc2)cc1 | 0.081 µM | 0.028 µM | 0.301 µM |  |
| CC(C)COc1ccc(-c2cc(C(=O)O)nn2-c2ccccc2)cc1 | 8.11 µM | > 10 µM | 7.42 µM |  |
| Cc1cc2c(C(C)C)c(O)c(O)c(C=O)c2c(O)c1-c1c(C)cc2c(C(C)C)c(O)c(O)c(C=O)c2c1O [GOSSYPOL] | 0.26 µM |  | > 25 µM |  |
| COC(=O)c1nn(-c2ccc(Oc3ccccc3)cc2)c(-c2ccc(OC(C)C)cc2)c1NC(=O)c1ccc(OC(C)C)cc1 | 4.52 µM | 5.16 µM | 4.28 µM |  |

More lines, main results first:

| Ki [1] | Ki [2] | Ki [3] | SMILES | other results |
| --- | --- | --- | --- | --- |
| 0.451 µM | 0.694 µM | 1.03 µM | CCOc1ccc(-c2cc(C(=O)O)nn2-c2ccc(Oc3ccccc3)cc2)cc1 |  |
| 0.247 µM | 0.207 µM | 24.3 µM | Cc1ccc(/N=c2\c3ccc(C)cc3n(C(=O)c3ccc(C(C)(C)C)cc3)c3c(O)c(O)c(O)cc23)cc1 |  |
| > 10 µM | > 10 µM | > 25 µM | O=C(O)c1cc(-c2ccccc2)n(-c2ccccc2)n1 |  |
| > 10 µM | > 10 µM | 4.47 µM | CC(C)Oc1ccc(C(=O)Nc2c(C(=O)O)nn(-c3ccc(Oc4ccccc4)cc3)c2-c2ccc(OCc3ccccc3)cc2)cc1 |  |
| 0.161 µM | 0.14 µM | 0.107 µM | CC(C)Oc1ccc(C(=O)Nc2c(C(=O)O)nn(-c3ccc(Oc4ccccc4)cc3)c2-c2ccc(OC(C)C)cc2)cc1 | Kd [21]: 0.472 µM; Kd [22]: 0.29 µM; Kd [23]: 0.265 µM; Activity [4]: 6.8%; Activity (HCT-116 [24]): inactive; Activity (HCT-116 [25]): inactive; Activity (HCT-116 [26]): inactive; Activity [27]: inactive; Activity [8]: 30%; Activity [9]: 5.2%; Activity [10]: 47%; Activity [11]: 6%; Activity [12]: 40%; Activity [13]: 33%; Activity [14]: 31%; Activity (DMS-53 [18]): Active; Activity (DMS-53 [19]): Active; Activity (DMS-53 [20]): Active |
| > 10 µM | > 10 µM |  | COc1ccc(C2=N[C@@H](c3ccc(Cl)cc3)[C@@H](c3ccc(Cl)cc3)N2C(=O)N2CCNC(=O)C2)c(OC(C)C)c1 [NUTLIN-3] | Activity [4]: 0.9%; Activity [8]: 29%; Activity [9]: 0.8%; Activity [10]: 49%; Activity [11]: 8%; Activity [12]: 41%; Activity [13]: 35%; Activity [14]: 34%; inhibition [16]: inactive; inhibition [17]: inactive; inhibition [28]: inactive; inhibition [29]: inactive; Kd [30]: 15 µM |
| 0.404 µM | 0.406 µM | 0.689 µM | CCOc1ccc(-c2c(NC(=O)c3ccc(C(C)(C)C)cc3)c(C(=O)O)nn2-c2ccc(Oc3ccccc3)cc2)cc1 |  |
| 0.722 µM | 1.4 µM | 0.422 µM | CC(C)COc1ccc(C(=O)Nc2c(C(=O)O)nn(-c3ccc(Oc4ccccc4)cc3)c2-c2ccc(OC(C)C)cc2)cc1 |  |

Reference: ChEMBL document CHEMBL3797039, “Bcl-2/MDM2 Dual Inhibitors Based on Universal Pyramid-Like α-Helical Mimetics” (J Med Chem, 2016)
